# According to US20180282331A1, “7-Oxo -6-(sulfooxy)- 1,6-diazabicyclo [3.2.1] octane containing compounds and their use in treatment of bacterial infections (changed by PCT to: 7-OXO -6-(SULFOOXY)- 1,6-DIAZABICYCLO [3.2.1] OCTANE CONTAINING COMPOUNDS AND THEIR USE IN TREATMENT OF BACTERIAL INFECTIONS” (WOCKHARDT LIMITED, priority 2015, published 2018):
# Where two headings read alike, the source gives them in different places.
# Key:
# Assay in all cases: MIC, agar dilution (MHA), compound alone
# Assay type in all cases: cell-based
# E. coli NCTC 13353 = details: E. coli NCTC 13353, compound alone, MHA, 35° C., 18 hours
# Procedure: (§1) The biological activity of representative compounds according to the invention against various bacterial strains was investigated. The Minimum Inhibitory Concentration (MIC) determination for the combinations was carried out in Muller Hinton Agar (MHA) (BD, USA) according to Clinical and Laboratory Standards Institute (CLSI) recommendations, (Clinical and Laboratory Standards Institute (CLSI), Performance Standards for Antimicrobial Susceptibility Testing, 20th Informational Supplement, M 100-S20, Volume 30, No. 1, 2010). In short, the test strains were adjusted to deliver about 10^4 CFU per spot with a multipoint inoculator (Applied Quality Services, UK). The plates were poured with MHA containing doubling concentration range of representative compounds according to present invention. The plates were inoculated and were incubated at 35° C. for 18 hours. […] The Table 5 depicts the antibacterial activity profile of compounds according to present invention against various multidrug resistant bacterial strains.
# K. pneumoniae H525 = details: K. pneumoniae H525, compound alone, MHA, 35° C., 18 hours
# Procedure: as §1
# E. coli 7 MP = details: E. coli 7 MP, compound alone, MHA, 35° C., 18 hours
# Procedure: as §1
# K. pneumoniae H521 = details: K. pneumoniae H521, compound alone, MHA, 35° C., 18 hours
# Procedure: as §1
# E. coli NCTC 13352 = details: E. coli NCTC 13352, compound alone, MHA, 35° C., 18 hours
# Procedure: as §1
# [1] = tested on: K. pneumoniae ATCC 700603; details: K. pneumoniae ATCC 700603, compound alone, MHA, 35° C., 18 hours
# Procedure: as §1
# E. coli M 50 = details: E. coli M 50, compound alone, MHA, 35° C., 18 hours
# Procedure: as §1
# [2] = Escherichia coli, NCTC13353, read-out: MIC
# [3] = Klebsiella pneumoniae, read-out: MIC
# [4] = Escherichia coli, read-out: MIC
# [5] = Escherichia coli, NCTC13352, read-out: MIC
# [6] = Klebsiella pneumoniae, ATCC700603, read-out: MIC
# [7] = Escherichia coli, M50, read-out: MIC
SMILES,MIC (E. coli NCTC 13353) [µg/mL],MIC (K. pneumoniae H525) [µg/mL],MIC (E. coli 7 MP) [µg/mL],MIC (K. pneumoniae H521) [µg/mL],MIC (E. coli NCTC 13352) [µg/mL],MIC [1] [µg/mL],MIC (E. coli M 50) [µg/mL],MIC (E. coli NCTC 13353; [2]) [µg/mL],MIC (K. pneumoniae H525; [3]) [µg/mL],MIC (E. coli 7 MP; [4]) [µg/mL],MIC (K. pneumoniae H521; [3]) [µg/mL],MIC (E. coli NCTC 13352; [5]) [µg/mL],"MIC [1, 6] [µg/mL]",MIC (E. coli M 50; [7]) [µg/mL]
"O=C(Cn1ccnc1)NNC(=O)[C@@H]1CC[C@@H]2CN1C(=O)N2OS(=O)(=O)O.[Na] [Example 2, Sodium salt of (2S,5R)-N′-(1H-imidazol-1-ylacetyl)-7-oxo-6-(sulfooxy)-1,6-diazabicyclo[3.2.1]octane-2-carbohydrazide]",0.25,1,1,1,0.5,>32,0.5,,,,,,,
O=C(Cn1ccnc1CO)NNC(=O)[C@@H]1CC[C@@H]2CN1C(=O)N2OS(=O)(=O)[O-].[Na+] [Example 42],,,,,,,,0.5,1,2,2,1,> 32,0.5
O=C(Cn1cccn1)NNC(=O)[C@@H]1CC[C@@H]2CN1C(=O)N2OS(=O)(=O)[O-].[Na+] [Example 11],,,,,,,,1,> 32,4,32,1,> 32,1
"CO/N=C(\C(=O)N[C@@H]1C(=O)N2C(C(=O)[O-])=C(C[N+]3(C)CCCC3)CS[C@H]12)c1csc(N)n1 [Cefepime, reference compound]",,,,,,,,32,32,16,32,4,0.5,> 32
NC(=O)c1nnnn1CC(=O)NNC(=O)[C@@H]1CC[C@@H]2CN1C(=O)N2OS(=O)(=O)[O-].[Na+] [Example 17],,,,,,,,0.25,1,0.5,1,0.25,> 32,0.25
Cc1nnnn1CCONC(=O)[C@@H]1CC[C@@H]2CN1C(=O)N2OS(=O)(=O)[O-].[Na+] [Example 53],,,,,,,,4,16,32,16,8,> 32,> 32
O=C(Cn1cccc1)NNC(=O)[C@@H]1CC[C@@H]2CN1C(=O)N2OS(=O)(=O)[O-].[Na+] [Example 18],,,,,,,,0.25,1,1,1,0.5,> 32,0.5
NC(=O)Cc1nnn(CC(=O)NNC(=O)[C@@H]2CC[C@@H]3CN2C(=O)N3OS(=O)(=O)[O-])n1.[Na+] [Example 14],,,,,,,,1,4,1,4,1,> 32,0.5
CCOC(=O)Cc1nnn(CC(=O)NNC(=O)[C@@H]2CC[C@@H]3CN2C(=O)N3OS(=O)(=O)[O-])n1.[Na+] [Example 13],,,,,,,,1,32,2,32,1,> 32,2
NCCCCc1nnn(CC(=O)NNC(=O)[C@@H]2CC[C@@H]3CN2C(=O)N3OS(=O)(=O)O)n1 [Example 32],,,,,,,,0.25,0.5,1,0.5,0.5,> 32,0.5
CCOC(=O)c1nnnn1CCONC(=O)[C@@H]1CC[C@@H]2CN1C(=O)N2OS(=O)(=O)[O-].[Na+] [Example 49],,,,,,,,> 32,> 32,> 32,> 32,> 32,> 32,> 32
NC(=O)Cc1nnnn1CC(=O)NNC(=O)[C@@H]1CC[C@@H]2CN1C(=O)N2OS(=O)(=O)[O-].[Na+] [Example 15],,,,,,,,0.5,2,1,2,0.5,> 32,0.5
CCOC(=O)c1nccn1CC(=O)NNC(=O)[C@@H]1CC[C@@H]2CN1C(=O)N2OS(=O)(=O)[O-].[Na+] [Example 21],,,,,,,,2,8,4,8,2,> 32,2
O=C(Cn1nccn1)NNC(=O)[C@@H]1CC[C@@H]2CN1C(=O)N2OS(=O)(=O)[O-].[Na+] [Example 6],,,,,,,,1,2,2,2,1,> 32,1
O=C(Cn1ccnc1CCO)NNC(=O)[C@@H]1CC[C@@H]2CN1C(=O)N2OS(=O)(=O)[O-].[Na+] [Example 40],,,,,,,,1,2,4,4,2,> 32,2
O=C(Cn1cncn1)NNC(=O)[C@@H]1CC[C@@H]2CN1C(=O)N2OS(=O)(=O)[O-].[Na+] [Example 8],,,,,,,,0.5,1,2,1,0.5,> 32,0.5
O=C(NOCCn1nnc(CCO)n1)[C@@H]1CC[C@@H]2CN1C(=O)N2OS(=O)(=O)[O-].[Na+] [Example 55],,,,,,,,16,> 32,> 32,> 32,32,> 32,16
"NCc1nnn(CCONC(=O)[C@@H]2CC[C@@H]3CN2C(=O)N3OS(=O)(=O)O)n1 [Example 44, (2S,5R)-N-{2-[5-(aminomethyl)-2H-tetrazol-2-yl]ethoxy}-7-oxo-6-(sulfooxy)-1,6-diazabicyclo[3.2.1]octane-2-carboxamide]",,,,,,,,> 32,> 32,> 32,> 32,> 32,> 32,> 32
O=C(NOCCn1ncnn1)[C@@H]1CC[C@@H]2CN1C(=O)N2OS(=O)(=O)[O-].[Na+] [Example 50],,,,,,,,8,> 32,32,> 32,8,> 32,8
O=C(NOCCn1cnnn1)[C@@H]1CC[C@@H]2CN1C(=O)N2OS(=O)(=O)[O-].[Na+] [Example 51],,,,,,,,4,> 32,16,> 32,8,> 32,4
